From patent publication US9623023B2, “Class of non-stimulant treatment and ADHD and related disorders” (The Florida State University Research Foundation, …, priority 2012, dated 2017)
“Also recorded” adds a separate entry of the source.

Assays:
PFC dopamine turnover = details: PNE mice; MPH administration; Zhu 2012; cited from earlier work
PNE mice [1] = assay: Locomotor activity (hyperactivity) in prenatal nicotine exposure (PNE) mouse model; type: in vivo; details: oral
PNE mice [2] = details: active phase (lights off), Zhu 2012; cited from earlier work
[3] = long-term usage; Recant 1980; cited from earlier work
[4] = tested on: hyperactivity in children; details: oral, dose range 0.5-2 mg/kg; previous reports; cited from earlier work
SHR rats = assay: Locomotor activity (hyperactivity) in spontaneously hypertensive rat (SHR) ADHD model; type: in vivo
Description: (§1) Spontaneously hypertensive rat (SHR) as an ADHD model. The SHR is a spontaneously occurring mutation associated with hypertension. […] Thus, both the SHR and the PNE mouse model show hyperactivity and increased frontal cortical KOPR activity. The selective KOPR antagonist, nor-BNI (10 mg/kg, i.p.) or the saline vehicle were administered to 60-day old SHR and WKY control rats (Sagvolden et al., 2009 (Reference 56)) at 17:00 hr and locomotor activity measured at hourly intervals over the next 19 hr (FIGS. 4 and 5). […] Since the hyperactivity in the SHR rat was evident during the lights off period from 19:00 hr to 7:00 hr, activity was compared during the lights off period between SHR rats receiving nor-BNI and those receiving saline.
The long-lasting effects of nor-BNI in the SHR is consistent with previous reports that the desensitization of the KOPR produced by nor-BNI lasts for up to 21 days (Metcalf and Coop, 2005 (Reference 43); Patkar et al., 2013 (Reference 48)).

KOPR = details: previous reports (Metcalf and Coop 2005; Patkar 2013); cited from earlier work
WKY control rats = assay: Locomotor activity in WKY control rats; type: in vivo, rat; details: 10 mg/kg i.p.
Description: as §1

COC(=O)C(c1ccccc1)C1CCCCN1 (stereo not drawn) [MPH, methylphenidate]
PFC dopamine turnover (PFC dopamine turnover): increases PFC dopamine turnover | locomotor activity (PNE mice [1]; PNE mice, MPH 0.75 mg/kg, FIG. 2 graph 204): significantly decreased locomotor activity | locomotor activity after single oral administration (PNE mice [2]): reduces the activity to the levels seen in drug naïve control mice

O=C1CC[C@@]2(O)[C@H]3Cc4ccc(O)c5c4[C@@]2(CCN3CC2CC2)[C@H]1O5 [naltrexone]
weight gain [3]: reduced weight gain | locomotor activity compared to vehicle (PNE mice [1]; P60 male PNE mice, naltrexone 1 mg/kg, at 19:00 hrs, FIG. 2 graph 202): significantly reduces locomotor activity; also recorded: reduces hyperactivity in PNE mice in a manner comparable to that of methylphenidate | hyperactivity in children [4]: effective in reducing hyperactivity

Oc1ccc2c3c1O[C@H]1c4[nH]c5c(c4C[C@@]4(O)[C@@H](C2)N(CC2CC2)CC[C@]314)C[C@@]1(O)[C@H]2Cc3ccc(O)c4c3[C@@]1(CCN2CC1CC1)[C@H]5O4 [nor-BNI, nor-binaltorphimine]
locomotor activity during lights off period (Mean±SEM beam breaks) (SHR rats; 60-day old SHR, 10 mg/kg i.p. at 17:00 hr, lights off 19:00-7:00 hr, saline=4830.75±609.2, p=0.04): 2743.25±945.8 beam breaks | effect on locomotor activity compared to saline (SHR rats; SHR, 10 mg/kg i.p., FIG. 4): reduced the locomotor activity | period over which decrease in hyperactivity was observed (SHR rats; SHR, single i.p. injection 10 mg/kg): 21 days | duration of desensitization of the KOPR (KOPR): up to 21 days | locomotor activity during lights off period (Mean±SEM beam breaks) (WKY control rats; 60-day old WKY control rats, saline=2604.5±608.1, p>0.05): 2494.75±831.6 beam breaks | effect on locomotor activity (WKY control rats; WKY control rats, FIG. 5): did not affect locomotor activity
